Species: Rattus norvegicus
Test: DrugMatrix - Regimen: Daily Repeat
Type: toxicity, organism-based, Sprague-Dawley
Set-up: regimen Daily Repeat, gender Male, age 6-8 weeks
Details: in vivo, po, route oral GAVAGE, vehicle .5 % CMC; for ABSOLUTE BASOPHIL / ABSOLUTE EOSINOPHIL / ABSOLUTE LYMPHOCYTE / ABSOLUTE MONOCYTE / ABSOLUTE SEGMENTED NEUTROPHIL / BASOPHIL / EOSINOPHIL / ERYTHROCYTE COUNT / HEMATOCRIT / HEMOGLOBIN / LEUKOCYTE COUNT / LYMPHOCYTE / MEAN CORPUSCULAR HEMOGLOBIN / MEAN CORPUSCULAR HEMOGLOBIN CONCENTRATION / MEAN CORPUSCULAR VOLUME / MONOCYTE / NEUTROPHIL / NUCLEATED RED BLOOD CELLS / PLATELET COUNT: tissue Blood; for ALANINE AMINOTRANSFERASE / ALBUMIN / ALKALINE PHOSPHATASE / ASPARTATE AMINOTRANSFERASE / BLOOD UREA NITROGEN / CARBON DIOXIDE / CHLORIDE / CHOLESTEROL / CREATINE PHOSPHOKINASE / CREATININE / GLUCOSE / LACTATE DEHYDROGENASE / LIPASE / PHOSPHORUS / POTASSIUM / SODIUM / TOTAL BILIRUBIN / TOTAL PROTEIN / URIC ACID: tissue Plasma
[1] = 0 mg/kg, 72 h, dose level Control, time 3 day
[2] = 0 mg/kg, 120 h, dose level Control, time 5 day
[3] = 59 mg/kg, 72 h, dose level Low, time 3 day
[4] = 59 mg/kg, 120 h, dose level Low, time 5 day

For `Cc1c(-c2ccccc2)oc2c(C(=O)OCCN3CCCCC3)cccc2c1=O` [FLAVOXATE], the “ABSOLUTE BASOPHIL” value [1] was 0 CELLS/uL, the “ABSOLUTE EOSINOPHIL” value [1] was 32.5 CELLS/uL and the “ABSOLUTE LYMPHOCYTE” value [1] was 13494.17 CELLS/uL. The “ABSOLUTE MONOCYTE” value [1] was 474 CELLS/uL, the “ABSOLUTE SEGMENTED NEUTROPHIL” value [1] was 1932.67 CELLS/uL and the BASOPHIL [1] was 0%. For the same compound, the EOSINOPHIL [1] was 0.17%, the “ERYTHROCYTE COUNT” value [1] was 5.45 x10E6/uL and the HEMATOCRIT [1] was 34.32%. For the same compound, the HEMOGLOBIN [1] was 13.82 G/DL, the “LEUKOCYTE COUNT” value [1] was 15.93 x10E3/uL and the LYMPHOCYTE [1] was 84.83%. The “MEAN CORPUSCULAR HEMOGLOBIN” value [1] was 25.38 pg, the “MEAN CORPUSCULAR HEMOGLOBIN CONCENTRATION” value [1] was 40.27 G/DL and the “MEAN CORPUSCULAR VOLUME” value [1] was 63.05 fL. For the same compound, the MONOCYTE [1] was 3%, the NEUTROPHIL [1] was 12% and the “NUCLEATED RED BLOOD CELLS” value [1] was 0.67 /100WBC. The “PLATELET COUNT” value [1] was 1188.5 x10E3/uL, the “ALANINE AMINOTRANSFERASE” value [1] was 54.83 u/L and the ALBUMIN [1] was 4.22 G/DL. For the same compound, the “ALKALINE PHOSPHATASE” value [1] was 427.67 u/L, the “ASPARTATE AMINOTRANSFERASE” value [1] was 86.5 u/L and the “BLOOD UREA NITROGEN” value [1] was 15.33 mg/dL. For the same compound, the “CARBON DIOXIDE” value [1] was 24.83 mmol/L, the CHLORIDE [1] was 102.33 MEQ/L and the CHOLESTEROL [1] was 71.67 mg/dL. The “CREATINE PHOSPHOKINASE” value [1] was 442.5 u/L, the CREATININE [1] was 0.19 mg/dL and the GLUCOSE [1] was 160.67 mg/dL. For the same compound, the “LACTATE DEHYDROGENASE” value [1] was 236.5 u/L, the LIPASE [1] was 9 u/L and the PHOSPHORUS [1] was 11.97 mg/dL. The POTASSIUM [1] was 6.2 MEQ/L, the SODIUM [1] was 142.85 MEQ/L and the “TOTAL BILIRUBIN” value [1] was 0.2 mg/dL. For the same compound, the “TOTAL PROTEIN” value [1] was 5.8 G/DL, the “URIC ACID” value [1] was 1.3 mg/dL and the “ABSOLUTE BASOPHIL” value [2] was 0 CELLS/uL. The “ABSOLUTE EOSINOPHIL” value [2] was 114.5 CELLS/uL, the “ABSOLUTE LYMPHOCYTE” value [2] was 14614 CELLS/uL and the “ABSOLUTE MONOCYTE” value [2] was 173 CELLS/uL. The “ABSOLUTE SEGMENTED NEUTROPHIL” value [2] was 1048.5 CELLS/uL, the BASOPHIL [2] was 0% and the EOSINOPHIL [2] was 0.67%. For the same compound, the “ERYTHROCYTE COUNT” value [2] was 5.66 x10E6/uL, the HEMATOCRIT [2] was 35.52% and the HEMOGLOBIN [2] was 14.27 G/DL. The “LEUKOCYTE COUNT” value [2] was 15.95 x10E3/uL, the LYMPHOCYTE [2] was 91.33% and the “MEAN CORPUSCULAR HEMOGLOBIN” value [2] was 25.23 pg. For the same compound, the “MEAN CORPUSCULAR HEMOGLOBIN CONCENTRATION” value [2] was 40.2 G/DL, the “MEAN CORPUSCULAR VOLUME” value [2] was 62.7 fL and the MONOCYTE [2] was 1.17%. The NEUTROPHIL [2] was 6.83%, the “NUCLEATED RED BLOOD CELLS” value [2] was 0.33 /100WBC and the “PLATELET COUNT” value [2] was 1229 x10E3/uL. The “ALANINE AMINOTRANSFERASE” value [2] was 58.67 u/L, the ALBUMIN [2] was 4.32 G/DL and the “ALKALINE PHOSPHATASE” value [2] was 382.5 u/L. For the same compound, the “ASPARTATE AMINOTRANSFERASE” value [2] was 81.67 u/L, the “BLOOD UREA NITROGEN” value [2] was 17.67 mg/dL and the “CARBON DIOXIDE” value [2] was 27.17 mmol/L. For the same compound, the CHLORIDE [2] was 102.33 MEQ/L, the CHOLESTEROL [2] was 63.67 mg/dL and the “CREATINE PHOSPHOKINASE” value [2] was 227.67 u/L. The CREATININE [2] was 0.23 mg/dL, the GLUCOSE [2] was 155.33 mg/dL and the “LACTATE DEHYDROGENASE” value [2] was 146.5 u/L. It also gave an LIPASE [2] of 10.67 u/L, a PHOSPHORUS [2] of 11.93 mg/dL and a POTASSIUM [2] of 6.85 MEQ/L. The SODIUM [2] was 143.95 MEQ/L, the “TOTAL BILIRUBIN” value [2] was 0.18 mg/dL and the “TOTAL PROTEIN” value [2] was 6.02 G/DL. The “URIC ACID” value [2] was 1.63 mg/dL, the “ABSOLUTE BASOPHIL” value [3] was 0 CELLS/uL and the “ABSOLUTE EOSINOPHIL” value [3] was 0 CELLS/uL. For the same compound, the “ABSOLUTE LYMPHOCYTE” value [3] was 10292.33 CELLS/uL, the “ABSOLUTE MONOCYTE” value [3] was 303.67 CELLS/uL and the “ABSOLUTE SEGMENTED NEUTROPHIL” value [3] was 1637.33 CELLS/uL. The BASOPHIL [3] was 0%, the EOSINOPHIL [3] was 0% and the “ERYTHROCYTE COUNT” value [3] was 5.31 x10E6/uL. For the same compound, the HEMATOCRIT [3] was 32.77%, the HEMOGLOBIN [3] was 12.9 G/DL and the “LEUKOCYTE COUNT” value [3] was 12.23 x10E3/uL. For the same compound, the LYMPHOCYTE [3] was 84%, the “MEAN CORPUSCULAR HEMOGLOBIN” value [3] was 24.3 pg and the “MEAN CORPUSCULAR HEMOGLOBIN CONCENTRATION” value [3] was 39.4 G/DL. For the same compound, the “MEAN CORPUSCULAR VOLUME” value [3] was 61.7 fL, the MONOCYTE [3] was 2.67% and the NEUTROPHIL [3] was 13.33%. For the same compound, the “NUCLEATED RED BLOOD CELLS” value [3] was 0.33 /100WBC, the “PLATELET COUNT” value [3] was 1448 x10E3/uL and the “ALANINE AMINOTRANSFERASE” value [3] was 51.33 u/L. The ALBUMIN [3] was 4.17 G/DL, the “ALKALINE PHOSPHATASE” value [3] was 336.67 u/L and the “ASPARTATE AMINOTRANSFERASE” value [3] was 71.67 u/L. The “BLOOD UREA NITROGEN” value [3] was 15 mg/dL, the “CARBON DIOXIDE” value [3] was 24.33 mmol/L and the CHLORIDE [3] was 101.67 MEQ/L. For the same compound, the CHOLESTEROL [3] was 85.67 mg/dL, the “CREATINE PHOSPHOKINASE” value [3] was 168.33 u/L and the CREATININE [3] was 0.14 mg/dL. The GLUCOSE [3] was 167.33 mg/dL, the “LACTATE DEHYDROGENASE” value [3] was 73.67 u/L and the LIPASE [3] was 9.67 u/L. For the same compound, the PHOSPHORUS [3] was 13.13 mg/dL, the POTASSIUM [3] was 6.68 MEQ/L and the SODIUM [3] was 144.33 MEQ/L. The “TOTAL BILIRUBIN” value [3] was 0.2 mg/dL, the “TOTAL PROTEIN” value [3] was 5.6 G/DL and the “URIC ACID” value [3] was 1.77 mg/dL. For the same compound, the “ABSOLUTE BASOPHIL” value [4] was 0 CELLS/uL, the “ABSOLUTE EOSINOPHIL” value [4] was 0 CELLS/uL and the “ABSOLUTE LYMPHOCYTE” value [4] was 14413.67 CELLS/uL. For the same compound, the “ABSOLUTE MONOCYTE” value [4] was 41.67 CELLS/uL, the “ABSOLUTE SEGMENTED NEUTROPHIL” value [4] was 1278 CELLS/uL and the BASOPHIL [4] was 0%. For the same compound, the EOSINOPHIL [4] was 0%, the “ERYTHROCYTE COUNT” value [4] was 5.45 x10E6/uL and the HEMATOCRIT [4] was 34.03%. For the same compound, the HEMOGLOBIN [4] was 13.93 G/DL, the “LEUKOCYTE COUNT” value [4] was 15.73 x10E3/uL and the LYMPHOCYTE [4] was 92%. The “MEAN CORPUSCULAR HEMOGLOBIN” value [4] was 25.57 pg, the “MEAN CORPUSCULAR HEMOGLOBIN CONCENTRATION” value [4] was 40.93 G/DL and the “MEAN CORPUSCULAR VOLUME” value [4] was 62.5 fL. For the same compound, the MONOCYTE [4] was 0.33%, the NEUTROPHIL [4] was 7.67% and the “NUCLEATED RED BLOOD CELLS” value [4] was 0 /100WBC. The “PLATELET COUNT” value [4] was 1355 x10E3/uL, the “ALANINE AMINOTRANSFERASE” value [4] was 45.67 u/L and the ALBUMIN [4] was 4.07 G/DL. For the same compound, the “ALKALINE PHOSPHATASE” value [4] was 365.33 u/L, the “ASPARTATE AMINOTRANSFERASE” value [4] was 71.33 u/L and the “BLOOD UREA NITROGEN” value [4] was 16 mg/dL. The “CARBON DIOXIDE” value [4] was 25 mmol/L, the CHLORIDE [4] was 103.33 MEQ/L and the CHOLESTEROL [4] was 77 mg/dL. The “CREATINE PHOSPHOKINASE” value [4] was 183.67 u/L, the CREATININE [4] was 0.19 mg/dL and the GLUCOSE [4] was 155.67 mg/dL. The “LACTATE DEHYDROGENASE” value [4] was 161.33 u/L, the LIPASE [4] was 9.67 u/L and the PHOSPHORUS [4] was 12.93 mg/dL. The POTASSIUM [4] was 6.66 MEQ/L, the SODIUM [4] was 145.6 MEQ/L and the “TOTAL BILIRUBIN” value [4] was 0.17 mg/dL. The “TOTAL PROTEIN” value [4] was 5.8 G/DL and the “URIC ACID” value [4] was 1.4 mg/dL.

— ChEMBL document CHEMBL3885881, “DrugMatrix”
